{"source": "patent US20250163122A1", "about": "“COMPOSITIONS AND METHODS FOR TREATING AIRWAY MUCUS DYSFUNCTION” (BOARD OF REGENTS, THE UNIVERSITY OF TEXAS SYSTEM, priority 2022, published 2025)", "note": "Where a SMILES comes first, the peptide text is derived from it. Bridges are numbered along the chain shown (N, C = ends). [ ]: non-standard residue; d: D form. S5 = C=CCCC[C@](C)(N)C(=O)O", "data": [{"test_system": "neuronal SNAREs only", "experiment": "Single vesicle content mixing assay, neuronal SNAREs only (VAMP2 vesicles)", "assay_type": "biochemical", "details": "10 μM peptide; raw count", "text": "For single vesicle content mixing assay, the lipid composition of the SV, SG, VAMP2, or VAMP8 vesicles was phosphatidylcholine (PC) (48%), phosphatidylethanolamine (PE) (20%), phosphatidylserine (PS) (12%), and cholesterol (20%); for both the neuronal and airway PM vesicles the lipid composition was Brain Total Lipid Extract supplemented 3.5 mol % PIP2, and 0.1 mol % biotinylated phosphatidylethanolamine (PE). The reconstitution method for neuronal PM and SV vesicles was described in detail previously (see Lai et al., 2017; Kyoung et al., 2011; and Lai et al., 2014). The same methods were used for airway PM, SG, VAMP2, and VAMP8 vesicles. […] A 3-5 fold excess of SNAP-25A or SNAP-23 (with respect to Stx1A or Stx3) and 3.5 mol % PIP2 were added to the protein-lipid mixture for neuronal or airway PM vesicles. […] For the preparation of SV, SG, VAMP2, or VAMP8 vesicles for single vesicle content mixing assay, 50 mM sulforhodamine B (Thermo Fisher Scientific) was added to the protein-lipid mixture. The vesicles subsequently formed during size exclusion chromatography using a Sepharose CL-4B column, packed under near constant pressure by gravity with a peristaltic pump (GE Healthcare) in a 5.5 ml column with a 5 ml bed volume that was equilibrated with buffer V (20 mM HEPES, pH 7.4, 90 mM NaCl) supplemented with 20 μM EGTA and 0.1% 2-mercaptoethanol. The eluent was subjected to dialysis into 21 of detergent-free buffer V supplemented with 20 μM EGTA, 0.1% 2-mercaptoethanol, 5 g of Bio-beads SM2 (Bio-Rad) and 0.8 g/L Chelex 100 resin (Bio-Rad). After 4 hours, the buffer was exchanged with 21 of fresh buffer V supplemented with 20 μM EGTA, 0.1% 2-mercaptoethanol and Bio-beads, and the dialysis continued for another 12 h (overnight). […] For ensemble lipid mixing assay, the reconstitution method is the same as that for the single vesicle content mixing assay, except that 50 mM sulforhodamine B was omitted for all the steps. Single vesicle content mixing experiments. All single vesicle fusion and single molecule experiments were performed on a prism-type total internal reflection fluorescence (TIRF) microscope using 532 nm (green) laser (CrystaLaser) excitation. Two observation channels were created by a 640 nm single-edge dichroic […]36, Shemrock): one channel was used for the fluorescence emission intensity of the content dyes and the other channel for that of the Cy5 dye that are part of the injected Ca^2+-solution. The two channels were recorded on two adjacent rectangular areas (45×90 m^2) of a charge-coupled device (CCD) camera (iXon+DV […], Andor Technology). The imaging data were recorded with the […] software developed by Taekjip Ha, Johns Hopkins University, Baltimore. Flow chambers were assembled by creating a “sandwich” consisting of a quartz slide and a glass coverslip that were both coated with polyethylene glycol (PEG) molecules consisting 0.1% (w/v) biotinylated-PEG except when stated otherwise, and using double-sided tape to create up to five flow-chambers. The single vesicle content mixing assay described in Lai et al. (2014) was used to monitor vesicle-vesicle association, Ca^2+-independent, and Ca^2+-triggered fusion. The surface of the quartz slides was passivated by coating the surface with polyethylene glycol (PEG) molecules which alleviated non-specific binding of vesicles. […]", "values": [{"compound": "CC[C@H](C)[C@H](NC(=O)[C@]1(C)CCCC=CCCC[C@](C)(NC(=O)[C@H](CCC(=O)O)NC(=O)[C@H](CCC(=O)O)NC(C)=O)C(=O)N[C@@H](CCCCN)C(=O)N[C@@H](CC(=O)O)C(=O)N[C@@H](C)C(=O)N1)C(=O)N[C@@H](CCCNC(=N)N)C(=O)N[C@@]1(C)CCCC=CCCC[C@@](C)(C(=O)N[C@@H](CC(=O)O)C(=O)N[C@@H](CCC(=O)O)C(=O)N[C@@H](CCC(N)=O)C(=O)N[C@@H](CS)C(N)=O)NC(=O)[C@H](CCSC)NC(=O)[C@H](C(C)C)NC(=O)[C@H](CC(C)C)NC1=O", "note": "[SP9, Ac-EE(S5)KDA(S5)IR(S5)LVM(S5)DEQC-amide] (Ac-EE[S5]KDA[S5]IR[S5]LVM[S5]DEQC-NH2; staple 3-7, 10-14)", "Ca2+ independent fusion events": 336}, {"compound": "Ac-SKD(S5)GIR(S5)LV(S5)LDE(S5)GEQL-amide (Ac-SKD[S5]GIR[S5]LV[S5]LDE[S5]GEQL-NH2; staple 11-15, 4-8; SMILES CC[C@H](C)[C@@H]1NC(=O)CNC(=O)[C@@](C)(NC(=O)[C@H](CC(=O)O)NC(=O)[C@H](CCCCN)NC(=O)[C@H](CO)NC(C)=O)CCCC=CCCC[C@@](C)(C(=O)N[C@@H](CC(C)C)C(=O)N[C@H](C(=O)N[C@@]2(C)CCCC=CCCC[C@@](C)(C(=O)NCC(=O)N[C@@H](CCC(=O)O)C(=O)N[C@@H](CCC(N)=O)C(=O)N[C@@H](CC(C)C)C(N)=O)NC(=O)[C@H](CCC(=O)O)NC(=O)[C@H](CC(=O)O)NC(=O)[C@H](CC(C)C)NC2=O)C(C)C)NC(=O)[C@H](CCCNC(=N)N)NC1=O) [SP10]", "Ca2+ independent fusion events": 341}, {"compound": "Ac-SKD(S5)GIR(S5)LVMLDE(S5)GEQ(S5)DR-amide (Ac-SKD[S5]GIR[S5]LVMLDE[S5]GEQ[S5]DR-NH2; staple 15-19, 4-8; SMILES CC[C@H](C)[C@@H]1NC(=O)CNC(=O)[C@@](C)(NC(=O)[C@H](CC(=O)O)NC(=O)[C@H](CCCCN)NC(=O)[C@H](CO)NC(C)=O)CCCC=CCCC[C@@](C)(C(=O)N[C@@H](CC(C)C)C(=O)N[C@H](C(=O)N[C@@H](CCSC)C(=O)N[C@@H](CC(C)C)C(=O)N[C@@H](CC(=O)O)C(=O)N[C@@H](CCC(=O)O)C(=O)N[C@@]2(C)CCCC=CCCC[C@@](C)(C(=O)N[C@@H](CC(=O)O)C(=O)N[C@@H](CCCNC(=N)N)C(N)=O)NC(=O)[C@H](CCC(N)=O)NC(=O)[C@H](CCC(=O)O)NC(=O)CNC2=O)C(C)C)NC(=O)[C@H](CCCNC(=N)N)NC1=O) [SP1]", "Ca2+ independent fusion events": 245}, {"compound": "Ac-SKDA(S5)IRT(S5)VM(S5)DEQ(S5)EQL-amide (Ac-SKDA[S5]IRT[S5]VM[S5]DEQ[S5]EQL-NH2; staple 12-16, 5-9; SMILES CC[C@H](C)[C@@H]1NC(=O)[C@@](C)(NC(=O)[C@H](C)NC(=O)[C@H](CC(=O)O)NC(=O)[C@H](CCCCN)NC(=O)[C@H](CO)NC(C)=O)CCCC=CCCC[C@@](C)(C(=O)N[C@H](C(=O)N[C@@H](CCSC)C(=O)N[C@@]2(C)CCCC=CCCC[C@@](C)(C(=O)N[C@@H](CCC(=O)O)C(=O)N[C@@H](CCC(N)=O)C(=O)N[C@@H](CC(C)C)C(N)=O)NC(=O)[C@H](CCC(N)=O)NC(=O)[C@H](CCC(=O)O)NC(=O)[C@H](CC(=O)O)NC2=O)C(C)C)NC(=O)[C@H]([C@@H](C)O)NC(=O)[C@H](CCCNC(=N)N)NC1=O) [SP4]", "Ca2+ independent fusion events": 356}, {"compound": "EESKDAGIRTLVMLDEQGEQLD [Peptide P0, non-stapled SNAP-25A fragment used as a control, reference compound]", "Ca2+ independent fusion events": 104}]}]}
